Source: patent publication US7132231B2, “Fluorescence polarization method for determining viral inhibitors” (priority 2001, dated 2006)

Columns and labels:
[1] = Cytotoxicity assay (XTT / crystal violet); assay type: cell-based, African green monkey; settings: monkey; for CC50 at 72 h: Vero cells, read-out: Toxicity IC50
Description: DNA polymerase long-chain synthesis assay. Compounds which elicited a decrease in the fluorescence polarization, when compared to control values, were tested for the ability to inhibit long-chain DNA synthesis via inhibition of polymerase subunit assembly [Digard et al. 1995; Bridges et al. 2001] using a poly-A template (Amersham Pharmacia) and an oligo-dT primer (Roche Molecular Biochemicals) on which Pol alone adds only a few bases. Reaction mixtures (50 mM Tris-HCl pH 7.5, 100 mM ammonium sulfate, 3 mM MgCl2, 0.1 mM EDTA, 1 mM DTT, 4% Glycerol, 40 ug ml^−1 BSA, 100 ug ml^−1 primer/template, 50 uM α-^32P-TTP (111 TBq/mmol; NEN Life Science products)), contained 200 fmol of HSV Pol ([Weisshart et al. 1994]), 400 fmol of HSV MBP-UL42 and varying amounts of compound in a final volume of 25 ul. Reactions were carried out at 37° C. for 5 minutes and stopped by adding 5 ul of alkaline loading buffer (2mM EDTA, 50mM NaOH, 2.5% glycerol, 0.025% bromocresol green) and placing them on ice and were then loaded onto an 4% alkaline agarose gel. Gels were dried over night and exposed to phosphorescence screens (BioRad). Catalytic subunit activity filter binding assay. Compounds which elicited a decrease in fluorescence polarization were tested for the ability to inhibit DNA synthesis by Pol alone using the oligo-(dT)/poly-(dA) primer-template. Reaction mixtures (50 mM TrisHCl pH 7.5, 100 mM ammonium sulfate, 3 mM MgCl2, 0.1 mM EDTA, 1 mM DTT, 4% Glycerol, 40 μg ml^31 1 BSA, 100 μg ml^−1 primer/template, 50 μM α-^32P-TTP (111 TBq/mmol)) contained 200 fmol of HSV Pol and various amounts of each compound in a final volume of 25 μl. Reactions were carried out at 37° C. for 25 minutes and stopped by placing 10 μl of the reaction mix onto DE81 filter discs. After washes in sodium hydrogen phosphate, water and ethanol, they were counted in a liquid scintillation analyzer (Packard 1600 TR). Plaque reduction assay. Confluent monolayers of Vero (African green monkey kidney) cells in 12-well dishes were infected with herpes virus strain 17 dilutions such that each well received between 25 and 50 PFU. Diluted virus was absorbed to cells in 2 ml Dulbecco's modified Eagle's medium containing 2.5% newborn calf serum, 100 U penicillin G ml^−1 and 100 ug streptomycin sulfate ml^−1 for 1 hour at 37° C. in a humidified CO2 incubator. After absorption, triplicate infected cultures were overlaid with 2% methyl cellulose in Dulbecco's modified Eagle's medium containing 5% newborn calf serum, 100 U penicillin G ml^−1, 100 ug streptomycin sulfate ml^−1 and various concentrations of the compounds which elicited a decrease in fluorescence polarization and incubated at 37° C. in a humidified CO2 incubator. Plaques were visualized by crystal violet staining at 2 to 3 days post infection and were counted on the following day [Coen et al. 1985]. Cytotoxicity assays. Vero cells (5×10^4 cells per well) were seeded into 96-well plates and treated with various concentrations of the compounds (which elicited a decrease in the fluorescence polarization) for 72 h in quadruplicates. […] In parallel, equally compound-treated cells were fixed by adding 95% ethanol, stained with crystal violet solution and washed. After addition of 100 ul acidified ethanol (EtOH:HCl=99:1) to dissolve the crystal violet, the plates were read in the plate reader (Wallac). Viral yield assay. […] After two days, plaques were stained and counted under a microscope [Pritchard et al. 1990]. […]

[2] = biological target: T1, Pol/UL42 long-chain DNA synthesis (HSV Pol + HSV MBP-UL42) (Human herpesvirus 1, UniProt P10226); experiment: DNA polymerase long-chain synthesis assay; assay type: biochemical, herpes simplex virus; settings: for ability of UL42 to stimulate long-chain synthesis by Pol: FIG. 4, BP1, BP3, BP5 at 30 μM, BP9 at 100, 75, 50, 25 and 12 μM
T1 construct: in presence of the whole catalytic subunit; made in house; host or cells: UL42 fusion: E. coli BL21(de3)pLysS
T1 sequence (P10226 1-339): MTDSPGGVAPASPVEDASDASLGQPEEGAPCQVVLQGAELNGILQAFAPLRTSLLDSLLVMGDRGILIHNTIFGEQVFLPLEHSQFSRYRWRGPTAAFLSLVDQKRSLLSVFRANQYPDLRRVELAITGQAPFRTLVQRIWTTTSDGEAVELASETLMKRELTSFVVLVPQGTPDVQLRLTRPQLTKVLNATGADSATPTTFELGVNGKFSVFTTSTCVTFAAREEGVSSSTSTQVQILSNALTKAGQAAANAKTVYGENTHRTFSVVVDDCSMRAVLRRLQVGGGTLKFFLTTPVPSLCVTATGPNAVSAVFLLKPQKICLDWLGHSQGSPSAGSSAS
Description: (§1) DNA polymerase long-chain synthesis assay. Compounds which elicited a decrease in the fluorescence polarization, when compared to control values, were tested for the ability to inhibit long-chain DNA synthesis via inhibition of polymerase subunit assembly [Digard et al. 1995; Bridges et al. 2001] using a poly-A template (Amersham Pharmacia) and an oligo-dT primer (Roche Molecular Biochemicals) on which Pol alone adds only a few bases. Reaction mixtures (50 mM Tris-HCl pH 7.5, 100 mM ammonium sulfate, 3 mM MgCl2, 0.1 mM EDTA, 1 mM DTT, 4% Glycerol, 40 ug ml^−1 BSA, 100 ug ml^−1 primer/template, 50 uM α-^32P-TTP (111 TBq/mmol; NEN Life Science products)), contained 200 fmol of HSV Pol ([Weisshart et al. 1994]), 400 fmol of HSV MBP-UL42 and varying amounts of compound in a final volume of 25 ul. Reactions were carried out at 37° C. for 5 minutes and stopped by adding 5 ul of alkaline loading buffer (2mM EDTA, 50mM NaOH, 2.5% glycerol, 0.025% bromocresol green) and placing them on ice and were then loaded onto an 4% alkaline agarose gel. Gels were dried over night and exposed to phosphorescence screens (BioRad). Catalytic subunit activity filter binding assay. Compounds which elicited a decrease in fluorescence polarization were tested for the ability to inhibit DNA synthesis by Pol alone using the oligo-(dT)/poly-(dA) primer-template. Reaction mixtures (50 mM TrisHCl pH 7.5, 100 mM ammonium sulfate, 3 mM MgCl2, 0.1 mM EDTA, 1 mM DTT, 4% Glycerol, 40 μg ml^31 1 BSA, 100 μg ml^−1 primer/template, 50 μM α-^32P-TTP (111 TBq/mmol)) contained 200 fmol of HSV Pol and various amounts of each compound in a final volume of 25 μl. Reactions were carried out at 37° C. for 25 minutes and stopped by placing 10 μl of the reaction mix onto DE81 filter discs. After washes in sodium hydrogen phosphate, water and ethanol, they were counted in a liquid scintillation analyzer (Packard 1600 TR). Plaque reduction assay. Confluent monolayers of Vero (African green monkey kidney) cells in 12-well dishes were infected with herpes virus strain 17 dilutions such that each well received between 25 and 50 PFU. Diluted virus was absorbed to cells in 2 ml Dulbecco's modified Eagle's medium containing 2.5% newborn calf serum, 100 U penicillin G ml^−1 and 100 ug streptomycin sulfate ml^−1 for 1 hour at 37° C. in a humidified CO2 incubator. After absorption, triplicate infected cultures were overlaid with 2% methyl cellulose in Dulbecco's modified Eagle's medium containing 5% newborn calf serum, 100 U penicillin G ml^−1, 100 ug streptomycin sulfate ml^−1 and various concentrations of the compounds which elicited a decrease in fluorescence polarization and incubated at 37° C. in a humidified CO2 incubator. Plaques were visualized by crystal violet staining at 2 to 3 days post infection and were counted on the following day [Coen et al. 1985]. Cytotoxicity assays. Vero cells (5×10^4 cells per well) were seeded into 96-well plates and treated with various concentrations of the compounds (which elicited a decrease in the fluorescence polarization) for 72 h in quadruplicates. […] In parallel, equally compound-treated cells were fixed by adding 95% ethanol, stained with crystal violet solution and washed. After addition of 100 ul acidified ethanol (EtOH:HCl=99:1) to dissolve the crystal violet, the plates were read in the plate reader (Wallac). Viral yield assay. Vero cells were seeded into 96-well (5×10^4 cells per well) tissue culture plates in 0.2 ml Dulbecco's modified Eagle's medium containing 2.5% newborn calf serum and 100 U penicillin G ml^−1. Cultures were inoculated with HSV strain 17 at an MOI of 5 PFU per cell. The virus inoculum was replaced after two hours with medium containing dilution series of test compounds and left for 24 hours. After two cycles of freeze-thawing, each drug dilution row was transferred to a freshly seeded 96-well plate and serially 1:3 diluted over the whole plate. After two days, plaques were stained and counted under a microscope [Pritchard et al. 1990]. […]

HSV Pol [3] = biological target: T2, HSV Pol (Human herpesvirus 1, UniProt P04293); experiment: Catalytic subunit activity filter binding assay (Pol alone); assay type: biochemical, herpes simplex virus
T2 construct: in presence of the whole catalytic subunit
T2 sequence (P04293 whole entry N46K): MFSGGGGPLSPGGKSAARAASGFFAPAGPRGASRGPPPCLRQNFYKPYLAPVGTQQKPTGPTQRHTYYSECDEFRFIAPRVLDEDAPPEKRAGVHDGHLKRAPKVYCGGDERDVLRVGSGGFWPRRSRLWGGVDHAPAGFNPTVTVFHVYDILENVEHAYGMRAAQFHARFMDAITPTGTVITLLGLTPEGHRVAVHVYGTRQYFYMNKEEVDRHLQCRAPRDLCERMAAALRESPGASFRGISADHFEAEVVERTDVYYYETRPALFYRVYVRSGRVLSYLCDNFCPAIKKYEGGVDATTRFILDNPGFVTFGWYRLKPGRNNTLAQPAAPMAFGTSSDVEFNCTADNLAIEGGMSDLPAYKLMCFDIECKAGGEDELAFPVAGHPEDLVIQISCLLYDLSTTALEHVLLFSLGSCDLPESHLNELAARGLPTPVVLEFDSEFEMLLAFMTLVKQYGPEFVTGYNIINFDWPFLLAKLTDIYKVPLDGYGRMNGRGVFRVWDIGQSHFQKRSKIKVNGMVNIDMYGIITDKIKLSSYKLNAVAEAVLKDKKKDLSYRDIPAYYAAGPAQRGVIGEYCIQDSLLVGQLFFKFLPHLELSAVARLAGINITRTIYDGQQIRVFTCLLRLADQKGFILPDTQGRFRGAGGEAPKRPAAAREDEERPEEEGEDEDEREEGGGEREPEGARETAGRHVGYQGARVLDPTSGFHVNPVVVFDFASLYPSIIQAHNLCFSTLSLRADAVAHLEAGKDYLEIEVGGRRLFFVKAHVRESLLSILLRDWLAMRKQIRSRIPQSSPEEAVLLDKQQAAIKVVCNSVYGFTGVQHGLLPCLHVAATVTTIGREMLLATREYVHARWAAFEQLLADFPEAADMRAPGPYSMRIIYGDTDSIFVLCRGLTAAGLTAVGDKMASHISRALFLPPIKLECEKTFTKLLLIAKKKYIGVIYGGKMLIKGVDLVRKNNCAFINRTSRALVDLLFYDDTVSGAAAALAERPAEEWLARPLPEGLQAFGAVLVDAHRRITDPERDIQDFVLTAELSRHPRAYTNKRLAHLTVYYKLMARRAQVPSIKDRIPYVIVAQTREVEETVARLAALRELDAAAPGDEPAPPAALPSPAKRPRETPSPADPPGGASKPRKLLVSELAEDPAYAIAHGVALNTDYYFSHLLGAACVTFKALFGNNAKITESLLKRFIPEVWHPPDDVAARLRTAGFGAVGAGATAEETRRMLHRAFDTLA
Description: as §1

HSV Pol [4] = biological target: T3, HSV Pol (Human herpesvirus 1, UniProt P04293, N46K); experiment: as above; assay type: biochemical, herpes simplex virus; settings: at higher compound concentrations, FIG. 5
T3 construct: in presence of the whole catalytic subunit
T3 sequence (P04293 whole entry N46K): as above
Description: as §1

[5] = biological target: T4, Pol/UL42 interaction (Oregon Green-peptide E / MBP-UL42Δ340) (Human herpesvirus 1, UniProt P10226); experiment: Fluorescence polarization (FP) assay of Pol peptide/UL42 binding; design: species or system herpes simplex virus; settings: for dose dependent change in the FP signal: serial dilution, FIG. 3
T4 construct: made in house; host or cells: E. coli BL21(de3)pLysS (UL42Δ340 fusion); peptide E synthetic
T4 sequence (P10226 1-339, stated change not applied): as the sequence (P10226 1-339) above
Description: Peptide probe and MBP-UL42. A peptide comprising the 18 C-terminal amino acids of HSV Pol (peptide E) was synthesized, N-terminally labeled with the pentafluorofluorescein-derivative Oregon Green 514 (Molecular Probes) and HPLC-purified. A truncated version of UL42 (UL42Δ340) was expressed in BL21(de3)pLysS E.coli as maltose binding protein fusion as described [Bridges et al. 2001] and purified over an amylose column (New England Biolabs). […] After elution with 10 mM maltose in 50 mM TrisHCl, 1 mM DTT, 0.5 mM EDTA, 4% Glycerol, 200 mM NaCl and Complete™ protease inhibitors (Roche Molecular Biochemicals), the protein was concentrated when necessary and stored at −80° C. until further use. After thawing, the purification buffer was exchanged to low fluorescent grade reagents (PanVera) and maltose was removed simultaneously using 10-DG Bio-Gel columns (BioRad). Fluorescence polarization assays. 1 nM of Oregon Green-peptide E was added to 7 uM MBP-UL42Δ340 and kept on ice until the mix was distributed into black 384-well plates (LJL Biosystems) in a total volume of 20 ul per well. The buffer conditions were 50 mM TrisHCl pH 7.5, 1 mM DTT, 0.5 mM EDTA, 150 mM NaCl, 4% Glycerol and 100 ug ml^−1 bovine gamma globulin. All chemicals were low fluorescent grade (PanVera).
Using this assay, the 16,320 compound Chembridge library that had been purchased by the Harvard Institute of Chemistry and Cell Biology (ICBB) was screened. Small molecules (5 mg ml^−1 in DMSO; ChemBridge) were screened using 384-pin arrays (Genetix), and 40 nl of each compound was transferred into every well. After incubation between 5 and 45 minutes at room temperature, the FP values were determined in the Analyst plate reader (LJL Biosystems). Chemicals for further testing were obtained from ChemBridge.
DNA polymerase long-chain synthesis assay. Compounds which elicited a decrease in the fluorescence polarization, when compared to control values, were tested for the ability to inhibit long-chain DNA synthesis via inhibition of polymerase subunit assembly [Digard et al. 1995; Bridges et al. 2001] using a poly-A template (Amersham Pharmacia) and an oligo-dT primer (Roche Molecular Biochemicals) on which Pol alone adds only a few bases. Reaction mixtures (50 mM Tris-HCl pH 7.5, 100 mM ammonium sulfate, 3 mM MgCl2, 0.1 mM EDTA, 1 mM DTT, 4% Glycerol, 40 ug ml^−1 BSA, 100 ug ml^−1 primer/template, 50 uM α-^32P-TTP (111 TBq/mmol; NEN Life Science products)), contained 200 fmol of HSV Pol ([Weisshart et al. 1994]), 400 fmol of HSV MBP-UL42 and varying amounts of compound in a final volume of 25 ul. Reactions were carried out at 37° C. for 5 minutes and stopped by adding 5 ul of alkaline loading buffer (2mM EDTA, 50mM NaOH, 2.5% glycerol, 0.025% bromocresol green) and placing them on ice and were then loaded onto an 4% alkaline agarose gel. Gels were dried over night and exposed to phosphorescence screens (BioRad). Catalytic subunit activity filter binding assay. Compounds which elicited a decrease in fluorescence polarization were tested for the ability to inhibit DNA synthesis by Pol alone using the oligo-(dT)/poly-(dA) primer-template. Reaction mixtures (50 mM TrisHCl pH 7.5, 100 mM ammonium sulfate, 3 mM MgCl2, 0.1 mM EDTA, 1 mM DTT, 4% Glycerol, 40 μg ml^31 1 BSA, 100 μg ml^−1 primer/template, 50 μM α-^32P-TTP (111 TBq/mmol)) contained 200 fmol of HSV Pol and various amounts of each compound in a final volume of 25 μl. Reactions were carried out at 37° C. for 25 minutes and stopped by placing 10 μl of the reaction mix onto DE81 filter discs. After washes in sodium hydrogen phosphate, water and ethanol, they were counted in a liquid scintillation analyzer (Packard 1600 TR). Plaque reduction assay. Confluent monolayers of Vero (African green monkey kidney) cells in 12-well dishes were infected with herpes virus strain 17 dilutions such that each well received between 25 and 50 PFU. […]

HSV strain 17 = experiment: Viral yield assay; assay type: cell-based, herpes simplex virus; settings: Vero cells, MOI of 5, 24 h; read-out: ED90 viral yield reduction
Description: (§2) DNA polymerase long-chain synthesis assay. Compounds which elicited a decrease in the fluorescence polarization, when compared to control values, were tested for the ability to inhibit long-chain DNA synthesis via inhibition of polymerase subunit assembly [Digard et al. 1995; Bridges et al. 2001] using a poly-A template (Amersham Pharmacia) and an oligo-dT primer (Roche Molecular Biochemicals) on which Pol alone adds only a few bases. […] Compounds which elicited a decrease in fluorescence polarization were tested for the ability to inhibit DNA synthesis by Pol alone using the oligo-(dT)/poly-(dA) primer-template. […] After washes in sodium hydrogen phosphate, water and ethanol, they were counted in a liquid scintillation analyzer (Packard 1600 TR). […] After absorption, triplicate infected cultures were overlaid with 2% methyl cellulose in Dulbecco's modified Eagle's medium containing 5% newborn calf serum, 100 U penicillin G ml^−1, 100 ug streptomycin sulfate ml^−1 and various concentrations of the compounds which elicited a decrease in fluorescence polarization and incubated at 37° C. in a humidified CO2 incubator. Plaques were visualized by crystal violet staining at 2 to 3 days post infection and were counted on the following day [Coen et al. 1985]. […] After addition of 100 ul acidified ethanol (EtOH:HCl=99:1) to dissolve the crystal violet, the plates were read in the plate reader (Wallac). […]

herpes virus strain 17 = experiment: Plaque reduction assay; assay type: cell-based, herpes simplex virus; settings: Vero cells, data not shown
Description: as §2

Structure (SMILES)	CC50 at 72 h [1] [µM]	IC50 [2] [µM]	ability of UL42 to stimulate long-chain synthesis by Pol [2]	IC50 (HSV Pol [3]) [µM]	Pol activity in absence of UL42 (HSV Pol [4])	IC50 [5] [µM]	dose dependent change in the FP signal [5]	EC90 (HSV strain 17) [µM]	CC50 ([1]; vero cells, Vero cell line, read-out: 50% toxic dose) [µM]	plaque formation (herpes virus strain 17)
Cc1ccc(C(C)C)cc1OCC(=O)NN=Cc1cc([N+](=O)[O-])ccc1O [BP1]	20	25	greatly reduced	> 100	did not show a significant change	35	dose dependent change	–	–	–
CC(C)C(C(=O)O)N1C(=O)/C(=C/c2ccc(Cl)cc2Cl)SC1=S (stereo not drawn) [BP3]	200	30	greatly reduced	25	significantly reduced	12	dose dependent change	–	–	–
O=C(Nc1cccc2nsnc12)c1cc(Br)ccc1NS(=O)(=O)c1ccc(Cl)cc1 [BP5]	50	26	greatly reduced	> 100	did not show a significant change	15	dose dependent change	0.4	50	completely abolish
